Measurements as given in patent US4332794A, “6"-Deoxydibekacin, 4",6"-dideoxydibekacin and 1-N-aminoacyl derivatives thereof, and the production of these new compounds” (Zaidan Hojin Biseibutsu Kagaku Kenkyu Kai, priority 1979, dated 1982).
Values after ≈ are worked out from the molar mass of the structure shown.

What was measured:
[1] = system: Escherichia coli K-12 C 600R/35; experiment: MIC, serial dilution on nutrient agar; type: cell-based; conditions: K12C600R/35, 37° C., 18 hours
Description: (§1) The minimum inhibitory concentrations (mcg/ml) of 6"-deoxydibekacin (abbreviated as 6"-DDKB), 4",6"-dideoxydibekacin (abbreviated as 4",6"-DDKB), 1-N-(L-4-amino-2-hydroxybutyryl)-6"-deoxydibekacin (abbreviated as AHB-6"-DDKB) and 1-N-(L-4-amino-2-hydroxybutyryl)-4",6"-dideoxydibekacin (abbreviated as AHB-4",6"-DDKB) of this invention against various microorganisms were determined according to serial dilution method on a nutrient agar medium at 37° C., the estimation being made after 18 hours incubation. For comparison purpose, the minimum inhibitory concentrations of dibekacin (abbreviated as DKB) were also determined in the same manner as stated above.

[2] = system: Escherichia coli K-12 J5B 11-2; experiment: MIC, serial dilution on nutrient agar; type: cell-based; conditions: K12J5B112, 37° C., 18 hours
Description: as §1

[3] = system: Escherichia coli K-12 ML 1629; experiment: MIC, serial dilution on nutrient agar; type: cell-based; conditions: K12ML1629, 37° C., 18 hours
Description: as §1

[4] = system: Escherichia coli K-12 ML 1630; experiment: MIC, serial dilution on nutrient agar; type: cell-based; conditions: K12ML1630, 37° C., 18 hours
Description: as §1

[5] = system: Klebsiella pneumoniae PCI 602; experiment: MIC, serial dilution on nutrient agar; type: cell-based; conditions: PCI602, 37° C., 18 hours
Description: as §1

Proteus vulgaris OX19 = experiment: MIC, serial dilution on nutrient agar; type: cell-based; conditions: 37° C., 18 hours
Description: as §1

Providencia 2991 = experiment: MIC, serial dilution on nutrient agar; type: cell-based; conditions: 37° C., 18 hours
Description: as §1

[6] = system: Pseudomonas aeruginosa 21-75; experiment: MIC, serial dilution on nutrient agar; type: cell-based; conditions: 2175, 37° C., 18 hours
Description: as §1

[7] = system: Pseudomonas aeruginosa GN315; experiment: MIC, serial dilution on nutrient agar; type: cell-based; conditions: 37° C., 18 hours
Description: as §1

[8] = system: Pseudomonas maltophilia GN907; experiment: MIC, serial dilution on nutrient agar; type: cell-based; conditions: Stenotrophomonas maltophilia, 37° C., 18 hours
Description: as §1

Serratia 4 = experiment: MIC, serial dilution on nutrient agar; type: cell-based; conditions: 37° C., 18 hours
Description: as §1

Serratia SOU = experiment: MIC, serial dilution on nutrient agar; type: cell-based; conditions: 37° C., 18 hours
Description: as §1

Serratia marcescens = experiment: MIC, serial dilution on nutrient agar; type: cell-based; conditions: 37° C., 18 hours
Description: as §1

[9] = system: Shigella flexneri 4b JS11811; experiment: MIC, serial dilution on nutrient agar; type: cell-based; conditions: 4BJS11811, 37° C., 18 hours
Description: as §1

Shigella sonnei JS11746 = experiment: MIC, serial dilution on nutrient agar; type: cell-based; conditions: 37° C., 18 hours
Description: as §1

[10] = system: Staphylococcus aureus 209P; experiment: MIC, serial dilution on nutrient agar; type: cell-based; conditions: 37° C., 18 hours
Description: as §1

[11] = system: kanamycin-sensitive and resistant bacteria; experiment: antibacterial activity compared to dibekacin; type: cell-based
Description: as §1

oto-toxicity = conditions: compounds of this invention
[12] = system: kanamycin-sensitive bacteria and various kanamycin-resistant bacteria; conditions: prior art; cited from earlier work

Row | SMILES | MIC [1] | MIC [2] | MIC [3] | MIC [4] | MIC [5] | MIC (Proteus vulgaris OX19) | MIC (Providencia 2991) | MIC [6] | MIC [7] | MIC [8] | MIC (Serratia 4) | MIC (Serratia SOU) | MIC (Serratia marcescens) | MIC [9] | MIC (Shigella sonnei JS11746) | MIC [10] | antibacterial activity compared to dibekacin (DKB) [11] | oto-toxicity (oto-toxicity) | antibacterial activity [12]
1 | C[C@@H]1C[C@H](N)[C@@H](O)[C@@H](O[C@@H]2[C@@H](O)[C@H](O[C@H]3O[C@H](CN)CC[C@H]3N)[C@@H](N)C[C@H]2N)O1 [4",6"-DDKB, 4",6"-dideoxydibekacin] | 50 µg/mL (≈ 119 µM) | 3.13 µg/mL (≈ 7.46 µM) | 3.13 µg/mL (≈ 7.46 µM) | 3.13 µg/mL (≈ 7.46 µM) | 0.78 µg/mL (≈ 1.86 µM) | 0.78 µg/mL (≈ 1.86 µM) | > 100 µg/mL | > 100 µg/mL | > 100 µg/mL | > 100 µg/mL | 100 µg/mL (≈ 238 µM) | > 100 µg/mL | 100 µg/mL (≈ 238 µM) | 3.13 µg/mL (≈ 7.46 µM) | 3.13 µg/mL (≈ 7.46 µM) | 0.39 µg/mL (≈ 0.93 µM) | same or more active | low oto-toxicity | –
2 | C[C@H]1O[C@H](O[C@@H]2[C@@H](O)[C@H](O[C@H]3O[C@H](CN)CC[C@H]3N)[C@@H](N)C[C@H]2N)[C@H](O)[C@@H](N)[C@@H]1O [6"-DDKB, 6"-deoxydibekacin] | 3.13 µg/mL (≈ 7.19 µM) | 1.56 µg/mL (≈ 3.58 µM) | 1.56 µg/mL (≈ 3.58 µM) | 3.13 µg/mL (≈ 7.19 µM) | 1.56 µg/mL (≈ 3.58 µM) | 0.39 µg/mL (≈ 0.895 µM) | > 100 µg/mL | > 100 µg/mL | 100 µg/mL (≈ 230 µM) | > 100 µg/mL | 100 µg/mL (≈ 230 µM) | > 100 µg/mL | 100 µg/mL (≈ 230 µM) | 3.13 µg/mL (≈ 7.19 µM) | 3.13 µg/mL (≈ 7.19 µM) | 0.78 µg/mL (≈ 1.79 µM) | same or more active | low oto-toxicity | –
3 | C[C@@H]1C[C@H](N)[C@@H](O)[C@@H](O[C@@H]2[C@@H](O)[C@H](O[C@H]3O[C@H](CN)CC[C@H]3N)[C@@H](N)C[C@H]2NC(=O)[C@@H](O)CCN)O1 [AHB-4",6"-DDKB, 1-N-(L-4-amino-2-hydroxybutyryl)-4",6"-dideoxydibekacin] | 0.78 µg/mL (≈ 1.5 µM) | 1.56 µg/mL (≈ 3 µM) | 1.56 µg/mL (≈ 3 µM) | 1.56 µg/mL (≈ 3 µM) | 0.78 µg/mL (≈ 1.5 µM) | 0.39 µg/mL (≈ 0.749 µM) | 100 µg/mL (≈ 192 µM) | > 100 µg/mL | 100 µg/mL (≈ 192 µM) | > 100 µg/mL | 6.25 µg/mL (≈ 12 µM) | > 100 µg/mL | 100 µg/mL (≈ 192 µM) | 6.25 µg/mL (≈ 12 µM) | 3.13 µg/mL (≈ 6.01 µM) | 0.78 µg/mL (≈ 1.5 µM) | – | low oto-toxicity | –
4 | NC[C@@H]1CC[C@@H](N)[C@@H](O[C@H]2[C@H](O)[C@@H](O[C@H]3O[C@H](CO)[C@@H](O)[C@H](N)[C@H]3O)[C@H](N)C[C@@H]2N)O1 [DKB, 3',4'-dideoxykanamycin B, reference compound] | 1.56 µg/mL (≈ 3.45 µM) | 3.13 µg/mL (≈ 6.93 µM) | 3.13 µg/mL (≈ 6.93 µM) | 3.13 µg/mL (≈ 6.93 µM) | 0.78 µg/mL (≈ 1.73 µM) | 0.78 µg/mL (≈ 1.73 µM) | > 100 µg/mL | > 100 µg/mL | > 100 µg/mL | > 100 µg/mL | 100 µg/mL (≈ 221 µM) | > 100 µg/mL | 100 µg/mL (≈ 221 µM) | 3.13 µg/mL (≈ 6.93 µM) | 6.25 µg/mL (≈ 13.8 µM) | 0.78 µg/mL (≈ 1.73 µM) | – | – | active against the kanamycin-sensitive bacteria and also against various kanamycin-resistant bacteria
5 | C[C@H]1O[C@H](O[C@@H]2[C@@H](O)[C@H](O[C@H]3O[C@H](CN)CC[C@H]3N)[C@@H](N)C[C@H]2NC(=O)[C@@H](O)CCN)[C@H](O)[C@@H](N)[C@@H]1O [AHB-6"-DDKB, 1-N-(L-4-amino-2-hydroxybutyryl)-6"-deoxydibekacin] | 1.56 µg/mL (≈ 2.91 µM) | 1.56 µg/mL (≈ 2.91 µM) | 1.56 µg/mL (≈ 2.91 µM) | 3.13 µg/mL (≈ 5.83 µM) | 1.56 µg/mL (≈ 2.91 µM) | 0.78 µg/mL (≈ 1.45 µM) | 100 µg/mL (≈ 186 µM) | 100 µg/mL (≈ 186 µM) | 50 µg/mL (≈ 93.2 µM) | > 100 µg/mL | 6.25 µg/mL (≈ 11.6 µM) | 100 µg/mL (≈ 186 µM) | 50 µg/mL (≈ 93.2 µM) | 6.25 µg/mL (≈ 11.6 µM) | 6.25 µg/mL (≈ 11.6 µM) | 1.56 µg/mL (≈ 2.91 µM) | – | low oto-toxicity | –
